The results in this text go back to US9622996B2, “Use of adrenergic beta-E-receptor blockers in cancer treatment” (priority 2012, dated 2017).

Assay [1] has as its system rat myocardial infarction models. The assay can be described thus: Rat myocardial infarction (heart failure) model, ligation of left coronary artery. It is filed as in vivo. As to conditions: 1 mg/kg/day intraperitoneal, 4 weeks. As for the experimental part:
In rat myocardial infarction models, activation of the β-3 receptor could increase level of SIRT1 in cardiomyocyte, inhibit expression of p53, improve the cardiac function and achieve anti-apoptosis effect. The myocardial infarction model was created by ligation of anterior descending branch of rat left coronary artery. BRL37344 was intraperitoneally injected at 1 mg/kg/day, and heart B-ultrasonography was performed after 4 weeks. Heart tissue was determined for apoptosis (tunel method) and expression levels of SIRT1 and p53 (western blot). The ratio of left ventricular weight to body weight (LVW/BW) is determined. It can be seen from the results shown in FIGS. 3 to 5, that BRL37344 decreases p53 expression, cardiac cell apoptosis, and value of LVW/BW of heart failure rat, increases SIRT1 expression, alleviate cardiac hypertrophy and improve cardiac function.

The test system of assay [2] is adipose-derived stem cells of rats. The assay can be described thus: β-Galactosidase staining of adipose-derived stem cells. It is filed as cell-based, rat. The conditions noted are these: 10^−7M, 24 h, compared with SR59230A. The procedure: Blockage of the β-3 receptor could increase level of β-galactosidase in adipose-derived stem cells and promote stem cell aging. BRL37344 and SR59230A were used to treat adipose-derived stem cells of rats each at 10^−7M. After 24 h, cells were fixed using paraformaldehyde, and stained and photographed according to the specification of β-Galactosidase Staining Kit. BRL37344 decreased the level of β-galactosidase in adipose-derived stem cells when compared with SR59230A, indicating agonisting of adrenergic β3 receptors of adipose-derived stem cells achieves anti-aging effect.

For assay [3], the system named is cardiac fibroblast of rats. The assay can be described thus: mTOR/α-Tubulin and Rictor/α-Tubulin double staining in cardiac fibroblast. As to conditions: 10^−7M, confocal microscope. It is filed as cell-based, rat. The source says:
Beta-3 receptor promoted binding of mTORC2 to α-Tubulin in spindle apparatus. BRL37344 was used to treat cardiac fibroblast of rats at 10^−7M. The cells were undergone mTOR/α-Tubulin immunohistochemical double staining and Rictor/α-Tubulin immunohistochemical double staining, and observed under confocal microscope.

A further assay relates to rat cardiomyocyte. Briefly: Western blot of mTOR and Rictor proteins (mTOR/Rictor complex). Format: cell-based. The conditions noted are these: 10^−7M, 24 h, compared to the control shRNA. As for the experimental part: Activation of the β3 receptor could increase mTOR/Rictor complex in MCF-7 cells. shRNA of β3 adrenergic receptor, control shRNA, BRL37344 and SR59230A were used to treat rat cardiomyocyte each at 10^−7M. After 24 h, total protein was extracted and subjected to western blot to determine the expression amount of mTOR and Rictor proteins.
Background: A western blot detects proteins with antibodies after separation by electrophoresis.

Another assay has as its system K562 leukaemia cells. Briefly: miR-16-1/miR-15a expression, apoptosis and mitochondrial readouts in K562 cells. It is filed as cell-based. As to conditions: K562, 10^−7M. The procedure:
(§1) SR59230A promoted cell apoptosis by increase expression of miR-16-1 and miR-15a in HL-60 and K562 leukaemia cells. SR59230A at 10^−7M was used to treat HL-60 and K562 leukaemia cells. 8 h following the treatment, total microRNA was extract and then reversely transcribed for quantitative PCR to determine the expression of miR-16-1 and miR-15a. Flow cytometry was used to detect earlier cell apoptosis label Annexin V/PI and apoptosis rate. MitoTracker Red CMXRos was used to detect number of mitochondrion. JC1 was used to determine mitochondrial membrane potential. Autophagosome was determined by monodansylcadaverine (MDC) staining, and observed and countered under transmission electron microscope. Intracellular ATP level was determined by ATP Kit. […] SR59230A could decrease mitochondrial membrane potential of HL-60 and K562 cells, induce mitophagy, decrease mitochondrial content and reduce intracellular ATP level.

Another assay concerns MCF-7 implant tumor. The assay can be described thus: MCF-7 implant tumor model in nude mice. Format: in vivo. As for the experimental part:
SR59230A reduced implant tumor volume in MCF-7 nude mice. 10^7 of MCF-7 cells were subcutaneously injected into 5-week old female nude mice to establish implant tumor model. 10 days followed the injection, tumor volume increased to about 250 mm^3. The mice were randomly divided into two groups with each group having 8 mice. The treatment group was peritoneally injected with SR56230A at 100 nmol for each mouse. The injection was carried every two days and lasted for 5 weeks. The control group is administrated with solvents with same volume. The length, width and height of tumors were determined using a vernier caliper prior to each administration, so as to calculate tumor volume. The tumor growth curve was shown in FIG. 8, in which SR59230A treated mice had slower implant tumor growth rat when compared to control group (FIG. 9). […] In order to determine expression levels of phospho-4E-BP1(Thr37/46) and p62, the tumor tissue was obtained for paraffin embedding and section and then immunohistochemistry, and proteins were extracted from the tumor tissue for Western blot.

Assay [4] relates to multidrug resistance-associated protein 1 (MRP1). Briefly: 5-CFDA (MRP1 substrate) efflux staining in PC-3 cells. It is filed as cell-based, Human. The conditions noted are these: PC-3, 10^−7M, 18 h, confocal microscopy. As for the experimental part:
Beta-3 receptor activated multidrug resistance-associated protein 1 (MRP1). Human prostatic cancer cells PC-3 was used to be treated with SR59230A and BRL37344, each at 10^−7M, for 18 h and then stained with substrate of MRP1, 5-CFDA and observed under confocal microscopy.

Assay [5] concerns prostatic cancer cells PC-3. The assay can be described thus: Autophagy of prostatic cancer cells PC-3 (FIG. 17). Format: cell-based, Human. As to conditions: FIG. 17 legend only.
Assay [6] has as its system MCF-7 breast carcinoma cells. Briefly: Annexin V/PI flow cytometry, apoptosis and cell cycle of MCF-7 cells. It is filed as cell-based. As to conditions: P<0.01. As for the experimental part: (§2) A target sequence was selected from the DNA sequence of β3AR gene using computer program. The DNA fragment of the target sequence was synthesized and cloned on a vector. Human U6 promoter was cloned to pcDNA3/neo vector to clone DNA fragment of shRNA. The plasmid vector was tranfected into cells using lipofection2000. 48 h following the tranfection, siRNA was expressed in the cells. The cells were subjected to Annexin V/PI double staining. Apoptosis rate was determined by flow cytometry.
For orientation: In flow cytometry, cells or beads pass a laser one at a time.

The test system of another assay is HL-60 leukaemia cells. Briefly: miR-16-1/miR-15a expression, apoptosis and mitochondrial readouts in HL-60 cells. It is filed as cell-based. The conditions noted are these: HL-60, 10^−7M. As for the experimental part: as §1
The subject of another assay is H1975 lung cancer cells. Briefly: Apoptosis of H1975 lung cancer cells. It is filed as cell-based. The procedure: as §2
The test system of another assay is MCF-7 cells. The assay can be described thus: Western blot of p53 and SIRT1 in MCF-7 cells treated with SR59230A. It is filed as cell-based. As to conditions: 24 h, with increasing SR59230A concentration. As for the experimental part: MCF-7 cells were treated with SR59230A at different concentrations. After 24 h, the cells were lysed to extract total protein. The protein concentration was determined by BCA method. 10 μg of the protein was used to perform 10% SDS PAGE, and then transferred to a PVDF membrane. The membrane was blocked for 1 h with TBST (10 mmol/L Tris HCl, pH 7.5, 150 mmol/L NaCl, 0.1% Tween 20) containing 4% fat-free milk, and incubated overnight with p53 antibody (1:1000) and SIRT1 antibody (1:1000) at 4° C. The membrane was further incubated with secondary antibodies for 1 h after washing, followed by ECL color development. The same procedure was repeated 3 times. The gray values of protein bands were obtained through Fluorchem 8900 software and the ratio of target band to reference band (GAPDH) was calculated. Results are shown in FIGS. 1 and 2, wherein the expression level of p53 was increased as the increase of SR59230A concentration, while SIRT1 was decreased.

A further assay relates to H1299 lung cancer cells. The assay can be described thus: Apoptosis of H1299 lung cancer cells. Format: cell-based. As for the experimental part: as §2
Another assay deals with MCF7 cells. The assay can be described thus: Mitochondrial autophagy in MCF7 cells (MitoTracker, LC3II Western blot). Format: cell-based. The conditions noted are these: MCF7, 10^−7M, 18 h. The procedure:
β3 receptor regulated mitochondrial autophagy. MCF7 cells were treated by SR59230A (10^−7M) for 18 h. MitoTracker was used to label mitochondrion at 37° C. for 20 min. The cells were washed with PBS for 3 times and fluorescent detection was then carried out by fluorescent confocal microscopy and flow cytometry. The autophagy labeling protein LC3II was measured by Western blot.

Setting [7] is: 8 h, quantitative PCR, compared to control.
The mark [8] stands for this setting: Annexin V/PI flow cytometry, P<0.01.
The mark [9] stands for this setting: 100 nmol per mouse peritoneally every two days for 5 weeks.
Where [10] appears, read: tumor tissue, immunohistochemistry and Western blot.

Take `C[C@H](Cc1ccc(OCC(=O)O)cc1)NC[C@H](O)c1cccc(Cl)c1` [BRL37344]: in assay [1], the cardiac hypertrophy entry is listed as “alleviate” and the “ratio of left ventricular weight to body weight (LVW/BW)” value is recorded as “decreases”. In addition, in [1] (heart B-ultrasonography), the cardiac function entry is listed as “improve”. In assay [1] (tunel method), the cardiac cell apoptosis entry is “decreases”. In assay [1] (western blot), the “SIRT1 expression in heart tissue” value is listed as “increases” and the “p53 expression in heart tissue” value is recorded as “decreases”. The “level of β-galactosidase” value in assay [2] is listed as “decreased”. Moreover, in assay [3], the “binding of Rictor to α-Tubulin” value is “promoted” and the “binding of mTOR to α-Tubulin in spindle apparatus” value is recorded as “promoted”. For the same compound, the mTOR/Rictor complex result with rat cardiomyocyte is recorded as “increased”.
For `CCc1ccccc1OC[C@@H](O)CN[C@H]1CCCc2ccccc21` [SR59230A], the mitophagy result in the assay on K562 leukaemia cells and in the assay with HL-60 leukaemia cells was “induce” in each case. Further, the “expression of miR-15a” value with K562 leukaemia cells (setting [7]) and with HL-60 leukaemia cells (setting [7]) was “significantly increased” in each case. The “expression of miR-16-1” value in the assay with K562 leukaemia cells (setting [7]) and with HL-60 leukaemia cells (setting [7]) was “significantly increased” throughout. In addition, the “intracellular ATP level” value with K562 leukaemia cells (ATP Kit) and with HL-60 leukaemia cells (ATP Kit) was “reduce” each time. The apoptosis rate entry in the assay on K562 leukaemia cells (setting [8]) and in the assay with HL-60 leukaemia cells (setting [8]) was “increased” throughout. Further, the mitochondrial membrane potential result in the assay on K562 leukaemia cells (JC1) and in the assay with HL-60 leukaemia cells (JC1) was “decrease” throughout. In addition, the mitochondrial content entry with K562 leukaemia cells (MitoTracker Red CMXRos) and in the assay on HL-60 leukaemia cells (MitoTracker Red CMXRos) was “decrease” throughout. Further, the “relative tumor growth rate T/C (%)” value in the assay on MCF-7 implant tumor (setting [9]) was found to be 39.80%. In the assay on MCF-7 implant tumor (setting [9]), the tumor inhibition rate is on record as 57.97%. In addition, in the assay with MCF-7 implant tumor (setting [9]), the “tumor volume based on the control group” value is 42.03%. Also, the “implant tumor growth rate compared to control group” value with MCF-7 implant tumor (100 nmol per mouse peritoneally every two days for 5 weeks, tumor growth curve) is “slower”. For the same compound, the glycolysis in tumors result with MCF-7 implant tumor (PET/CT detection) is “inhibited”. Also, the “expression of p62” value in the assay on MCF-7 implant tumor (setting [10]) is recorded as “reduced”. In the assay with MCF-7 implant tumor (setting [10]), the “expression of phospho-4E-BP1” value is listed as “reduced”. For the same compound, the “mTOR activity in tumors” value in the assay on MCF-7 implant tumor (setting [10]) was “inhibited”. For the same compound, in the assay with MCF-7 implant tumor (tumor tissue, transmission electron microscope), the “mitophagy in tumor cells” value is reported as “enhanced”. In addition, in [4], the “5-CFDA efflux (MRP1 substrate)” value was “inhibited”. Besides, in assay [5], the “autophagy of prostatic cancer cells PC-3” value was “increased”. Besides, the “apoptosis rate versus control group” value in assay [6] was “significant increase”. In the assay with H1975 lung cancer cells, the “apoptosis of H1975 cells” value is reported as “promoted apoptosis”. The “expression level of SIRT1” value in the assay on MCF-7 cells was “decreased”. Further, in the assay on MCF-7 cells, the “expression level of p53” value is on record as “increased”. Moreover, the “apoptosis of H1299 cells” value in the assay on H1299 lung cancer cells is “promoted apoptosis”. In the assay with MCF7 cells, the autophagosome entry was “increased”. In the assay with MCF7 cells (MitoTracker), the mitochondrion amount result is listed as “significantly decreased”. Also, the LC3II expression entry with MCF7 cells (Western blot) was “increased”.
